Literature values, collected in US20030216407A1, “Use of PDE5 inhibitors in the treatment of scarring” (Pfizer Inc., priority 2002, published 2003).

Tests used:
[1] = tested on: adult cardiac fibroblasts; conditions: substance on its own
[2] = tested on: PDE6 against PDE5; conditions: more potent against PDE6 than against PDE5
[3] = tested on: normal rat kidney fibroblast collagen synthesis; conditions: in vitro

| Compound | regulating cardiac fibroblast proliferation [1] | potency against PDE6 relative to PDE5 [2] | collagen synthesis induced by CTGF [3] |
| --- | --- | --- | --- |
| atrial natriurectic peptide [ANP] | did not on its own regulate |  |  |
| CCCOc1ccccc1-c1nc2nn[nH]c2c(=O)[nH]1 [zaprinast] | no effect | five fold |  |
| Nc1nc2c(ncn2[C@@H]2O[C@@H]3COP(=O)(O)O[C@H]3[C@H]2O)c(=O)[nH]1 [cGMP] |  |  | no effect |
